Test [1] addresses T1, Activin receptor type-1 (Homo sapiens) (UniProt Q04771).
T1 sequence (whole entry): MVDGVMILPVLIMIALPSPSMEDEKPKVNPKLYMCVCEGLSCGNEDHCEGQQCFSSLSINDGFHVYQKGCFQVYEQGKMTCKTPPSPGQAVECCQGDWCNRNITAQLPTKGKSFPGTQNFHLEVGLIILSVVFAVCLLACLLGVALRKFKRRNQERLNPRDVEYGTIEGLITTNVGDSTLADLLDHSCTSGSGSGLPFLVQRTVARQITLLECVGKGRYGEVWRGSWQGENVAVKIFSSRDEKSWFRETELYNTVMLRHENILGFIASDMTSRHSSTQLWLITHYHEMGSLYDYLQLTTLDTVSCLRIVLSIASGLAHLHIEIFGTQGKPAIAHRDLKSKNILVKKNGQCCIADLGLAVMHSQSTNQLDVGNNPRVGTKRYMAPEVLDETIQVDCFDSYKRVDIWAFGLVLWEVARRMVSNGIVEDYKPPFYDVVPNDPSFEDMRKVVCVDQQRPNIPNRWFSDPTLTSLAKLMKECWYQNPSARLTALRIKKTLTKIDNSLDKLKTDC
Put plainly: Selectivity interaction (KinomeScan (DiscoverX)) EUB0000595a ACVR1. The settings on record: at 10 µM.

The target of a further test is Insulin receptor (Homo sapiens, UniProt P06213). Put plainly: Selectivity interaction (Kinase panel (enzymatic assay)) EUB0000595a INSR.
Insulin receptor, sequence (P06213 28-758 limits assumed): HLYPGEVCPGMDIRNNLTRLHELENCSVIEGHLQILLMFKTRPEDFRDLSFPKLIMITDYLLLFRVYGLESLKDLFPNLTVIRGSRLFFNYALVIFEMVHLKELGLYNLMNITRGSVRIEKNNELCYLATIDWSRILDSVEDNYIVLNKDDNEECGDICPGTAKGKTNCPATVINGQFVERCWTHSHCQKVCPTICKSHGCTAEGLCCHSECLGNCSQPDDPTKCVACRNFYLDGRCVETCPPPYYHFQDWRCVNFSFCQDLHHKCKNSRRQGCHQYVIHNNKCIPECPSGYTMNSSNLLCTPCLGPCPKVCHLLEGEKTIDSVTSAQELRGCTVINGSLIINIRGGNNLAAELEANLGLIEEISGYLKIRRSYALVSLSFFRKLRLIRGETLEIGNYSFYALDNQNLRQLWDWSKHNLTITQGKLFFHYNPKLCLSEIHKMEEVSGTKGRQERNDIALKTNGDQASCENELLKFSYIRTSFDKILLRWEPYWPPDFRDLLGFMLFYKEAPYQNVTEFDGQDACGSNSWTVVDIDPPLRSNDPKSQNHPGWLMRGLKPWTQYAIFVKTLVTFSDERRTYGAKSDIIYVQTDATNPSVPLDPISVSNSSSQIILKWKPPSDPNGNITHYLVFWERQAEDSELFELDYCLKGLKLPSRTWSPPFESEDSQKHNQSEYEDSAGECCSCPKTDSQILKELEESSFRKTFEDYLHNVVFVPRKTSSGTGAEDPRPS
Insulin receptor, sequence (P06213 763-1382 limits assumed): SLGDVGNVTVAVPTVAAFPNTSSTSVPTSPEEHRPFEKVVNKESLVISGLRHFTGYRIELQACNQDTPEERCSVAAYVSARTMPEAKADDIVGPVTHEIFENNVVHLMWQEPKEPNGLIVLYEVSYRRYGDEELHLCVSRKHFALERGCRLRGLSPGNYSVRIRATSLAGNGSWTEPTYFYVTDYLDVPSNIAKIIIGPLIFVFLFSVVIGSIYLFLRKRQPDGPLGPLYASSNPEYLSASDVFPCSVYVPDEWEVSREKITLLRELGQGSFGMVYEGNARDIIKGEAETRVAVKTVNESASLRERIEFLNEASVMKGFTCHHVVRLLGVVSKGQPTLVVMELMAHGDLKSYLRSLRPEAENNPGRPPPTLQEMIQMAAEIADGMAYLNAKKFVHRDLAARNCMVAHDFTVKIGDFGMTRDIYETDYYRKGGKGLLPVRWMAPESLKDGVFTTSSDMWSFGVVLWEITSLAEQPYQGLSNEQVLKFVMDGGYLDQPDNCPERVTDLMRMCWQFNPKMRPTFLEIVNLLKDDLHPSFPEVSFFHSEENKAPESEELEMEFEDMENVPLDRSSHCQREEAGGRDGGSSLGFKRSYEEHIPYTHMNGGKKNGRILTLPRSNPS
Test [2] has as its target Serine/threonine-protein kinase SIK1 (Homo sapiens) (UniProt P57059). Kind of test: Selectivity interaction (KinomeScan (DiscoverX)) EUB0000595a SIK1. The conditions noted are these: at 10 µM.
The target in test [3] is BMP-2-inducible protein kinase (Homo sapiens) (UniProt Q9NSY1). Kind of test: Selectivity interaction (KinomeScan (DiscoverX)) EUB0001619a BMP2K. The settings on record: at 1 µM.
Test [4] addresses Serine/threonine-protein kinase PLK1 (Homo sapiens, UniProt P53350). The conditions noted are these: at 10 µM.
The target in test [5] is Myosin light chain kinase family member 4 (Homo sapiens, UniProt Q86YV6). Put plainly: Selectivity interaction (Enzymatic assay) EUB0001550a MYLK4.
Myosin light chain kinase family member 4, sequence (Q86YV6 whole entry): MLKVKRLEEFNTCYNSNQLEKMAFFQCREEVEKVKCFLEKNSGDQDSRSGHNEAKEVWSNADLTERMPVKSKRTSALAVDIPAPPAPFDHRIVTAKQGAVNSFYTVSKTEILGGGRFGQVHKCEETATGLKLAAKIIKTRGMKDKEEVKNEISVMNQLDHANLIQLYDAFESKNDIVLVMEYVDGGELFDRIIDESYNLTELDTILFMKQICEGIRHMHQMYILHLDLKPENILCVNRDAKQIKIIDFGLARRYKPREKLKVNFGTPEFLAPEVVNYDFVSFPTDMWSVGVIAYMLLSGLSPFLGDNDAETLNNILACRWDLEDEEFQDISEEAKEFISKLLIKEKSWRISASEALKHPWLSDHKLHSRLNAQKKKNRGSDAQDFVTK
The target of test [6] is Cyclin-dependent kinase 18 (Homo sapiens) (UniProt Q07002). Put plainly: Selectivity interaction (ActivX KiNativ screen (kinase selectivity in THP-1 cell lysates)) EUB0000639a CDK18. The format is subcellular. The conditions noted are these: lysate, at 0.04 µM.
Cyclin-dependent kinase 18 (Homo sapiens), sequence (Q07002 whole entry): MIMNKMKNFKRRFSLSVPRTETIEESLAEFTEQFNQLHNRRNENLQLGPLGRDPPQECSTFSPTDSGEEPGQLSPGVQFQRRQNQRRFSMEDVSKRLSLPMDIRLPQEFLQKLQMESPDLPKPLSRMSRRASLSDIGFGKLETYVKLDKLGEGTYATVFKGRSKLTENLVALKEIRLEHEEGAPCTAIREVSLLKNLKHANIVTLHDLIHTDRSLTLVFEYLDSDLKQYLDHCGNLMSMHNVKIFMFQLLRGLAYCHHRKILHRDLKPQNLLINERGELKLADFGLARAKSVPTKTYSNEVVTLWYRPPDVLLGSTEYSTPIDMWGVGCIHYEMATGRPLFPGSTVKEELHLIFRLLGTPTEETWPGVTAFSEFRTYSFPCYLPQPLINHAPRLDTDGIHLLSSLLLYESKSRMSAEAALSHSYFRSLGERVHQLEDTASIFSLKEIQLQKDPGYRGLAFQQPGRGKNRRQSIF
Test [7] deals with T2, Inhibitor of nuclear factor kappa-B kinase subunit beta (Homo sapiens) (UniProt O14920).
T2 sequence (whole entry): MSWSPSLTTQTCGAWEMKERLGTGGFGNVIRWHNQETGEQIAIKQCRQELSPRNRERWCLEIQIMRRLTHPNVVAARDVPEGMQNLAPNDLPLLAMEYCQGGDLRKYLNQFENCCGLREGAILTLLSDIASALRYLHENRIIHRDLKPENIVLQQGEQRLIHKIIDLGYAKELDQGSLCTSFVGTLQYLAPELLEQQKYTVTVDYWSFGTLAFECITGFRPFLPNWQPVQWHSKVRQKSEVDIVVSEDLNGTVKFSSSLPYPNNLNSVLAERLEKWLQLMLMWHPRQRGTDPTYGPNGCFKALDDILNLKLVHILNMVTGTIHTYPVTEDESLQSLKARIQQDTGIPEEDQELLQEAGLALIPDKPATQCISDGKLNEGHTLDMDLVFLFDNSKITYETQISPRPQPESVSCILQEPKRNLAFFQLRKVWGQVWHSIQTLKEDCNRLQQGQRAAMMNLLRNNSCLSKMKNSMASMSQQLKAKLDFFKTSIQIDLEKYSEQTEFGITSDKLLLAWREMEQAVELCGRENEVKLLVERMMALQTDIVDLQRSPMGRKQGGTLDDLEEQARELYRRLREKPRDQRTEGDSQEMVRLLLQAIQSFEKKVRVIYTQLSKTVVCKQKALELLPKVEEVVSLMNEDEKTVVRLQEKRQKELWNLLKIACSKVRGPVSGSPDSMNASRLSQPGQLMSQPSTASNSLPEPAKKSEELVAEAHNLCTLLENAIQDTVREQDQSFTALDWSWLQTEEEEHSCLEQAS
Kind of test: Selectivity interaction (ActivX KiNativ screen (kinase selectivity in THP-1 cell lysates)) EUB0000639a IKBKB. The format is subcellular. The conditions noted are these: lysate, at 1 µM.

The target of test [8] is T3, Mitogen-activated protein kinase kinase kinase 13 (Homo sapiens) (UniProt O43283).
T3 sequence (whole entry): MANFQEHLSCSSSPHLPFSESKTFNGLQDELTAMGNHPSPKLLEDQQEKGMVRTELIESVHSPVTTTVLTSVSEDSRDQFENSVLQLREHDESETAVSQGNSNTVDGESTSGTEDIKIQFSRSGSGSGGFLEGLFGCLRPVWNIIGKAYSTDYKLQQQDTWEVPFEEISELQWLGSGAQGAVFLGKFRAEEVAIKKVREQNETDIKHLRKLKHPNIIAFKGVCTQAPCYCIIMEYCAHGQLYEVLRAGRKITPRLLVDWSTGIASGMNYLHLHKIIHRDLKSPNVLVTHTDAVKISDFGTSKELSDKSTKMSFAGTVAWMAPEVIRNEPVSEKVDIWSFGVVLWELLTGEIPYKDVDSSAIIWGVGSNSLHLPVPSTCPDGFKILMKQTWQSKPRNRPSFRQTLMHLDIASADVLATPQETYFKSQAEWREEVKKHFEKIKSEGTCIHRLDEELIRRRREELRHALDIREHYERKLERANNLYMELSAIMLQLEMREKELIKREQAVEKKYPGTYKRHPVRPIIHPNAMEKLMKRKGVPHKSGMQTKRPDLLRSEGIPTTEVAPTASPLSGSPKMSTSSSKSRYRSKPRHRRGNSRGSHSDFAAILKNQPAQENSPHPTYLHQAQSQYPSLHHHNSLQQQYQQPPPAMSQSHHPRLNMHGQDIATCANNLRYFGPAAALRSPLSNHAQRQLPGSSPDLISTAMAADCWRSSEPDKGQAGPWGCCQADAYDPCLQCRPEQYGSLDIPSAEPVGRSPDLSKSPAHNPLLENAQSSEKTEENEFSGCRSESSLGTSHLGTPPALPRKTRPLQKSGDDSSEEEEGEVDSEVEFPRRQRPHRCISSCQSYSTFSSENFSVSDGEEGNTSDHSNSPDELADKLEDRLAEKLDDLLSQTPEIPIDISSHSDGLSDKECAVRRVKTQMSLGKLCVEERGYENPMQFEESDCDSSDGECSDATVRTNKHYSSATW
Put plainly: Selectivity interaction (KinomeScan (DiscoverX)) EUB0000045b MAP3K13.

Test [9] addresses Vascular endothelial growth factor receptor 3 (Homo sapiens, UniProt P35916). Put plainly: Selectivity interaction (ProQinase) EUB0000171b FLT4.
Test [10] concerns the target Ribosomal protein S6 kinase alpha-5 (Homo sapiens) (UniProt O75582). Put plainly: Selectivity interaction (KinomeScan (DiscoverX)) EUB0000618a RPS6KA5. The conditions noted are these: at 10 µM.
In test [11] the target is Ribosomal protein S6 kinase alpha-3 (Homo sapiens, UniProt P51812). Kind of test: Selectivity interaction (KinomeScan (DiscoverX)) EUB0000229b RPS6KA3. The settings on record: at 10 µM.
Ribosomal protein S6 kinase alpha-3, sequence (P51812 whole entry): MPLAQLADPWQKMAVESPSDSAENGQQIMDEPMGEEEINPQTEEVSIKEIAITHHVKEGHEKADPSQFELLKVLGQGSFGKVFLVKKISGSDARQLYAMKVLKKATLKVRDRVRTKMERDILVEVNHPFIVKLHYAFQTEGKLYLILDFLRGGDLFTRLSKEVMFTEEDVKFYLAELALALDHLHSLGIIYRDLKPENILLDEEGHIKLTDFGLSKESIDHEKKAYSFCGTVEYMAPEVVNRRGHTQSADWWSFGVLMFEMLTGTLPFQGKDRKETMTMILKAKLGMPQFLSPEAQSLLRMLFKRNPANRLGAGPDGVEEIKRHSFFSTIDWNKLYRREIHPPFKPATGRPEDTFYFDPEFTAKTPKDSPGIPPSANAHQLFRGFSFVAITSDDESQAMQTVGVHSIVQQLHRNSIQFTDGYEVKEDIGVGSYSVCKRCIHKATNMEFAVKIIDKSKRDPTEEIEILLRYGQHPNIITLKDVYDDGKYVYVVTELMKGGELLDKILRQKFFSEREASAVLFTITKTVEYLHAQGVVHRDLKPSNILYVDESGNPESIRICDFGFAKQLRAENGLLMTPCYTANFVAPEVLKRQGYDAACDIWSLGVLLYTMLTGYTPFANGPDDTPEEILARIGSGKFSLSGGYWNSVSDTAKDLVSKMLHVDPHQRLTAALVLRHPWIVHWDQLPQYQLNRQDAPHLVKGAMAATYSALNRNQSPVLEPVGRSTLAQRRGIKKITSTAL

Vascular endothelial growth factor receptor 3, sequence (P35916 whole entry): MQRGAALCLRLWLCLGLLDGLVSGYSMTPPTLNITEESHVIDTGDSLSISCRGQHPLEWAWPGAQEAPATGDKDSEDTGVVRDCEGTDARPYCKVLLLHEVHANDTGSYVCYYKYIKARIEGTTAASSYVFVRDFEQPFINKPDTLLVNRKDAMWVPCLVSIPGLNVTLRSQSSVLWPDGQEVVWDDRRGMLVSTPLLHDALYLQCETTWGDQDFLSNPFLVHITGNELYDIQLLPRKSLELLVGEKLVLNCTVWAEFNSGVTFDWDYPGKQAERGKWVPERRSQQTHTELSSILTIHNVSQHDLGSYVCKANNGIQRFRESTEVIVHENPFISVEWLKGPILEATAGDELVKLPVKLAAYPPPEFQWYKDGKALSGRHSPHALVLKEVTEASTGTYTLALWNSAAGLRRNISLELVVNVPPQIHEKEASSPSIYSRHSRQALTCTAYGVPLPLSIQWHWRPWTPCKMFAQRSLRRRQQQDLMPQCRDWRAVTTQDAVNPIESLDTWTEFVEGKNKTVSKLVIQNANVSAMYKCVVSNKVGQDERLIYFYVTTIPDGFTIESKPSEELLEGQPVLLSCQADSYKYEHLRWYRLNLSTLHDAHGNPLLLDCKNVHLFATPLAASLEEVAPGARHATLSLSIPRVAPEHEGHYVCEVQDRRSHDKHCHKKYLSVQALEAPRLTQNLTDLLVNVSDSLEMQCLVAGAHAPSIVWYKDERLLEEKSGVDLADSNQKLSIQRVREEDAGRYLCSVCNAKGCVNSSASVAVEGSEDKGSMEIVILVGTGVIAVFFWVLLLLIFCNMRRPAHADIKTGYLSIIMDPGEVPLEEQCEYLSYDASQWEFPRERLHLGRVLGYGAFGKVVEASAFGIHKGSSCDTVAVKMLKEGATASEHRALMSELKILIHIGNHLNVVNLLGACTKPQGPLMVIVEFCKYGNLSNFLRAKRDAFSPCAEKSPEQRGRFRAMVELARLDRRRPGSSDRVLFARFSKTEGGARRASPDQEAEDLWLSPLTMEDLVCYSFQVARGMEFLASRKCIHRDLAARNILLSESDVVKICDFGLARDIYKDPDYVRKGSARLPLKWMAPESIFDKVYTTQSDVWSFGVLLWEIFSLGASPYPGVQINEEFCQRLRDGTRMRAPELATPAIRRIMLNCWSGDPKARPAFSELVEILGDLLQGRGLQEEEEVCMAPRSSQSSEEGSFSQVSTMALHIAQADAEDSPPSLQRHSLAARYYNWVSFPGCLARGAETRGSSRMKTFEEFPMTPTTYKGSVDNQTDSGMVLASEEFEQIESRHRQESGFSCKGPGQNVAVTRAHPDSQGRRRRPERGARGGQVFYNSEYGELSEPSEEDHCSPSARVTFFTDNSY
Serine/threonine-protein kinase PLK1, sequence (P53350 whole entry): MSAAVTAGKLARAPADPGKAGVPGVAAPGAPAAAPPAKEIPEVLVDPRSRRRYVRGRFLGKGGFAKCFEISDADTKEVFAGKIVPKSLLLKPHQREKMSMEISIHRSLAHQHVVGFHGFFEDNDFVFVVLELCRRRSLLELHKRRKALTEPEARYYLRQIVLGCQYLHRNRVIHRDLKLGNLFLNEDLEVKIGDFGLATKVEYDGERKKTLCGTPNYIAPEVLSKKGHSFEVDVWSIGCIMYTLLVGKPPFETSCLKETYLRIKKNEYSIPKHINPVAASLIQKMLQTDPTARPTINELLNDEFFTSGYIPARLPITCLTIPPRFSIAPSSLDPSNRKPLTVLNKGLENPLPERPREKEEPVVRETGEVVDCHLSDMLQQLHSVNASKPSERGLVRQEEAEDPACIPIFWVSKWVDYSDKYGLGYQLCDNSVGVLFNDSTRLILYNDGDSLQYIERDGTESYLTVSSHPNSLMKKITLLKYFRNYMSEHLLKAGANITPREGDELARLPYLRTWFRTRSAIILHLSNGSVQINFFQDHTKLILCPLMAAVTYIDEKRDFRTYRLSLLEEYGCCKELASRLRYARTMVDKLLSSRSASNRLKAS

On to `COCC(=O)NC/C=C/c1ccc2ncnc(Nc3ccc(Oc4ccc(C)nc4)c(C)c3)c2c1` [CP-724714], for which the % of control was determined as 90% in test [1] and 100% in [2]. Besides, on Insulin receptor, the IC50 (usually the concentration needed to halve the response being measured) is over 10 µM.
Molecule `N#Cc1cccc(-c2c[nH]c3ncnc(N4CCOCC4)c23)c1` showed a % of control in test [3] of 54%.
`CCN(CC)CCCCNc1ncc2cc(-c3cc(OC)cc(OC)c3)c(NC(=O)NC(C)(C)C)nc2n1` had a % of control in [4] of 100%.
Regarding `CN(C)CC#Cc1ccc2[nH]c3c(c2c1)-c1nc(N)ncc1CCC3`, half-maximal inhibition in test [5] (IC50) was put at 66 nM.
Consider `CC[C@@H]1[C@H](F)C(=O)N[C@@H]1COc1nccc2cc(C(N)=O)c(OC)cc12` [ZIMLOVISERTIB], for which the figures for the % of inhibition in test [6] and in test [7] were 1.7% and -6.6%, respectively.
As for `C=CC(=O)Nc1cc(-n2c(=O)ccc3cnc4ccc(-c5ccc(NS(C)(=O)=O)cc5)cc4c32)ccc1C`, the % of control in test [8] (at 1 µM) and in test [8] (at 10 µM) was 100% each time.
Consider `C=CC(=O)Nc1cccc(C(=O)Nc2ccc(Nc3cc(-c4[nH]c(SC)nc4C)ccn3)cc2)c1`, for which the % of control was 73% in test [9] (at 1 µM) and 68% in test [9] (at 5 µM).
`O[C@H]1CC[C@H](Nc2ncc3nc(Nc4c(F)cc(F)cc4F)n([C@H]4CCOC4)c3n2)CC1` had a % of control in test [10] of 100%.
Turning to `COc1cc(N(C)c2ccnc3ccc(C(F)(F)F)cc23)cc(OC)c1OC`, the % binding in [11] worked out at 71%.
